# Results reported in ChEMBL document CHEMBL1649129, “Treatment with the fusion inhibitor enfuvirtide influences the appearance of mutations in the human immunodeficiency virus type 1 regulatory protein rev” (2009).
# Experiments:
# Format in all cases: functional
# [1] = system: Human immunodeficiency virus 1; test: Antiviral activity against HIV1 harboring wild type regulatory protein rev isolated from patient with viral infection assessed as CD4 cell count after 48 weeks (reference value: 146/ul)
# [2] = system: Human immunodeficiency virus 1; test: Antiviral activity against HIV1 harboring E57A mutant regulatory protein rev isolated from patient with viral infection assessed as CD4 cell count after 48 weeks (reference value: 176/ul)
# [3] = system: Human immunodeficiency virus 1; test: Antiviral activity against HIV1 harboring E57A mutant regulatory protein rev isolated from patient with viral infection assessed as change in CD4 cell count after 48 weeks relative to control
# [4] = system: Human immunodeficiency virus 1; test: Antiviral activity against HIV1 harboring wild type regulatory protein rev isolated from patient with viral infection assessed as change in viral RNA count after 48 weeks relative to control
# [5] = system: Human immunodeficiency virus 1; test: Antiviral activity against HIV1 harboring E57A mutant regulatory protein rev isolated from patient with viral infection assessed as viral RNA count after 48 weeks (reference value: 4.9/ml)
# [6] = system: Human immunodeficiency virus 1; test: Antiviral activity against HIV1 harboring wild type regulatory protein rev isolated from patient with viral infection assessed as viral RNA count after 48 weeks (reference value: 4.9/ml)
# [7] = system: Human immunodeficiency virus 1; test: Antiviral activity against HIV1 harboring wild type regulatory protein rev isolated from patient with viral infection assessed as change in CD4 cell count after 48 weeks relative to control
# [8] = system: Human immunodeficiency virus 1; test: Antiviral activity against HIV1 harboring E57A mutant regulatory protein rev isolated from patient with viral infection assessed as change in viral RNA count after 48 weeks relative to control
substance,measurement,setting,value
enfuvirtide,CD4 count,[1],192 cells/µL
same,CD4 count,[2],104 cells/µL
same,fold change (FC),[3],-42
same,fold change (FC),[4],-0.84
same,Activity,[5],5.4 log10 copies/mL
same,Activity,[6],4.4 log10 copies/mL
same,fold change (FC),[7],56
same,fold change (FC),[8],0.93
